Assays:
TrCel3B [1] = target: T1, TrCel3B (Trichoderma reesei, UniProt G0RJ07); assay: pNPG hydrolysis, pNP release at […] nm; type: biochemical; settings: pNPG substrate (5 mM stock), pH 4.5, 60 °C
T1 construct: gene cel3b; gene 2622 bp, 96 kDa
T1 sequence (G0RJ07 19-874): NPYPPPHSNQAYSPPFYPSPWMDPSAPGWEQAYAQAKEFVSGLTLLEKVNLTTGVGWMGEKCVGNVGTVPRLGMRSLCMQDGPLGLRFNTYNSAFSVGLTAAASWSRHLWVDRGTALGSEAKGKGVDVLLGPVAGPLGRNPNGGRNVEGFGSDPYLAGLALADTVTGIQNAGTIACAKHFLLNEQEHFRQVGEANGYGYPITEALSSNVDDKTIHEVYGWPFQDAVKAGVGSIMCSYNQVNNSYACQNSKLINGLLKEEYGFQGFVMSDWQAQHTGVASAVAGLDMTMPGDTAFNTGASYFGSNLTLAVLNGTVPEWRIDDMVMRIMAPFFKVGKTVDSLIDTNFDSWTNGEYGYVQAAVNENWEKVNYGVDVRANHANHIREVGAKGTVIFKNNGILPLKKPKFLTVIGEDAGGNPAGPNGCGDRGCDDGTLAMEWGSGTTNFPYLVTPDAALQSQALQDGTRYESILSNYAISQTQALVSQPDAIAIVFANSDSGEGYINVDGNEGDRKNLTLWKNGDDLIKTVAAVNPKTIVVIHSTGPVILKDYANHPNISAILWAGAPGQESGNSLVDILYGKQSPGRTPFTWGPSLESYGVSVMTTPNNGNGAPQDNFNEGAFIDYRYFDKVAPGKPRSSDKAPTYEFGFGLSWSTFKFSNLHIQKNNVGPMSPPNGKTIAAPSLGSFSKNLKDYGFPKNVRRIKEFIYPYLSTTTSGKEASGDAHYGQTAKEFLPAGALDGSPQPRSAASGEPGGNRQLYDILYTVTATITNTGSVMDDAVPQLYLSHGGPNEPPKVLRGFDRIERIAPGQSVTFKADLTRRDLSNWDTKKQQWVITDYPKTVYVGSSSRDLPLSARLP

TrCel3B [2] = target: T1, TrCel3B; assay: pNP release at […] nm; type: biochemical; settings: pH 5.5, 50 °C (methods; figure legend 60 °C), 30 min

SMILES | % inhibition (TrCel3B [1]) | pNP release at 405 nm (TrCel3B [2])
OC[C@H]1OC(O)[C@H](O)[C@@H](O)[C@@H]1O (some centres unmarked) [glucose] | TeBgl3C showed a slightly higher tolerance to glucose than TrCel3B | 
O=[N+]([O-])c1ccc(O[C@@H]2O[C@H](CO)[C@@H](O)[C@H](O)[C@H]2O)cc1 [4-nitrophenyl β-D-glucopyranoside] |  | TeBgl3C and TrCel3B displayed the highest specific activities on pNPG
